Measured values as given in publication PMC10579241, “Impact of trifluoromethyl and sulfonyl groups on the biological activity of novel aryl-urea derivatives: synthesis, in-vitro, in-silico and SAR studies” (Scientific Reports, 2023).
≈ marks a conversion by molar mass, not a printed value. Marks after values point to notes of the source that are not given here.

Legend:
[1] = system: BRCA2; test: qRT-PCR, BRCA2 in PC3 cells; format: cell-based, human; settings: versus negative samples
[2] = system: Escherichia coli; test: MIC by serial dilution (agar wells), E. coli; format: cell-based
[3] = system: human lung carcinoma (A549); test: cells; format: cell-based
[4] = system: hepatocellular carcinoma cell line (HePG2); test: cells; format: cell-based; settings: Homo sapiens, 48 h
[5] = system: skin cancer (A431); test: cells; format: cell-based; settings: Homo sapiens, A-431, 100 μg/mL, 48 h
[6] = system: Bacillus mycoides; test: microbe, parasite or virus in culture; format: cell-based
[7] = system: Escherichia coli; test: Agar well diffusion, E. coli; format: cell-based; settings: Escherichia coli, read-out: Inhibition zones diameter
[8] = system: Candida albicans; test: MIC by serial dilution (agar wells), C. albicans; format: cell-based
[9] = system: PACA2; test: DNA damage, comet assay, PACA2; format: cell-based, human
[10] = system: pancreatic cancer cell line (PACA2); test: cells; format: cell-based; settings: Homo sapiens, PaCa-2, 48 h
[11] = system: CDKN2A; test: qRT-PCR, CDKN2A in PACA2 cells; format: cell-based, human; settings: versus negative untreated sample
[12] = system: TP53; test: qRT-PCR, TP53 in HCT116 cells; format: cell-based, human; settings: versus negative samples
Method: RNA was extracted from pancreas, prostate, lung and liver cell lines using a total RNA purification kit (Qiagen, Hilden, Germany) according to the manufacturer's instructions. An aliquot of RNA was diluted in RNase-free water to estimate RNA quantity. Aliquots were used immediately for reverse transcription (RT). cDNA synthesis was performed on extracted RNA, which was treated with DNase (Invitrogen, Germany) to remove any possible DNA contamination. The DNase-treated RNA was reverse transcribed into first-strand cDNA using the RevertAid First Strand cDNA Synthesis kit (Fermantas) according to the manufacturer's instructions. Determination of the pancreas, prostate, lung and liver cell line cDNA copy number was carried out using StepOne™ Real-Time PCR System from Applied Biosystems (Thermo Fisher Scientific, Waltham, MA USA). Gene expressions were detected by real-time PCR, which was performed using the Rotor-Gene Q system (Qiagen Company). A 25 µL reaction mixture consisted of 12.5 µL SYBR® Premix Ex TaqTM (TaKaRa, Biotech. Co. Ltd.), 0.5 µL of each primer (10 PMole) (Table 1), 1 µL cDNA (50 ng) and 10.5 µL RNase free water. The optimum amplification conditions were chosen empirically according to each tested gene. Generally, the amplification conditions include initial incubation (95.0 °C for 3 min), then 40 cycles of amplification with denaturation (95.0 °C for 15 s), annealing (55.0 °C for 30 s) and extension (72.0 °C for 30 s) steps then 71 cycles which started at 60.0 °C and then increased about 0.5 °C every 10 s up to 95.0 °C. Mean cycle threshold (Ct) values of triplicate samples are used for analysis. The Ct value indicates the fractional cycle number at which the amount of amplified target reaches a fixed threshold. Data from real-time PCR were analyzed using 2^−∆∆Ct method[38]–[40]. Data were represented as the fold change in target gene expression normalized to a House-Keeping gene (HKG) and relative to the control. β-actin was used as a HKG to normalize input RNA amount, RNA quality and reverse transcription efficiency.

[13] = system: Candida albicans; test: Agar well diffusion, C. albicans; format: cell-based
[14] = system: HCT116; test: DNA damage, comet assay, HCT116; format: cell-based, human
[15] = system: PACA2; test: DNA fragmentation assay, PACA2; format: cell-based, human
[16] = system: HCT116; test: DNA fragmentation assay, HCT116; format: cell-based, human
[17] = system: BRCA1; test: qRT-PCR, BRCA1 in PC3 cells; format: cell-based, human; settings: versus negative samples
[18] = system: PC3; test: DNA damage, comet assay, PC3; format: cell-based, human
[19] = system: normal skin fibroblast cell line (BJ1); test: cells; format: cell-based; settings: Homo sapiens, Skin fibroblast, MTT, 48 h
[20] = in vitro; format: cell-based; settings: human, BJ1 normal skin fibroblast cells, 100 μg/mL
[21] = system: prostate cancer (PC3); test: cells; format: cell-based; settings: Homo sapiens, 48 h
[22] = 0.00488 mg/mL, 150 µL in DMSO, 15 mm agar well
[23] = 0.00975 mg/mL, 150 µL in DMSO, 15 mm agar well
[24] = 0.0195 mg/mL, 150 µL in DMSO, 15 mm agar well
[25] = 0.0391 mg/mL, 150 µL in DMSO, 15 mm agar well
[26] = 0.0781 mg/mL, 150 µL in DMSO, 15 mm agar well
[27] = 0.1563 mg/mL, 150 µL in DMSO, 15 mm agar well
[28] = 0.3125 mg/mL, 150 µL in DMSO, 15 mm agar well
[29] = 0.625 mg/mL, 150 µL in DMSO, 15 mm agar well
[30] = 1.25 mg/mL, 150 µL in DMSO, 15 mm agar well
[31] = 2.50 mg/mL, 150 µL in DMSO, 15 mm agar well
[32] = 5.00 mg/mL, 150 µL in DMSO, 15 mm agar well
[33] = 10.0 mg/mL, 150 µL in DMSO, 15 mm agar well
[34] = read-out: Minimum inhibition concentration (MIC)

## Cc1ccc(S(=O)(=O)NC(=O)Nc2ccc(C(F)(F)F)cc2)cc1 [Compound 7, 4-Methyl-N-[(4-{trifluoromethyl}phenyl)carbamoyl]benzenesulfonamide]
[1]
  BRCA2 gene expression level: decreased significantly
[2]; [22]
  zone of inhibition at 4.88 µg/mL: 15 mm
[2]; [23]
  zone of inhibition at 9.75 µg/mL: 16 mm
[2]; [24]
  zone of inhibition at 19.5 µg/mL: 17 mm
[2]; [25]
  zone of inhibition at 39.1 µg/mL: 18 mm
[2]; [26]
  zone of inhibition at 78.1 µg/mL: 19 mm
[2]; [27]
  zone of inhibition at 156.3 µg/mL: 20 mm
[2]; [28]
  zone of inhibition at 312.5 µg/mL: 22 mm
[2]; [29]
  zone of inhibition at 625 µg/mL: 23 mm
[2]; [30]
  zone of inhibition at 1250 µg/mL: 25 mm
[2]; [31]
  zone of inhibition at 2500 µg/mL: 26 mm
[2]; [32]
  zone of inhibition at 5000 µg/mL: 27 mm
[2]; [33]
  zone of inhibition at 10000 µg/mL: 28 mm
[2]; [34]
  MIC: 4.88 µg/mL (≈ 13.6 µM)
[3]; A549, 48 h, 100 μg/mL
  mortality at 100 µg/mL: 100%
[3]; MTT, 48 h
  IC50: 86.5 ± 1.4 µM
[4]; 100 μg/mL
  mortality at 100 µg/mL: 100%
[4]; MTT
  IC50: 97.4 ± 1.11 µM
[5]
  mortality at 100 µg/mL: 55.4 ± 1.25%
[6]; B. mycoides, 200 μL of 10 mg/mL in DMSO in 15 mm holes, overnight 37 °C
  Inhibition zones diameter: 36 ± 1.25 mm
[6]; Bacillus mycoides, read-out: Inhibition zones diameter
  zone of inhibition at 10000 µg/mL: 36 mm
[7]
  zone of inhibition at 10000 µg/mL: 30 ± 0.74 mm
[8]; [22]
  zone of inhibition at 4.88 µg/mL: 16 mm
[8]; [23]
  zone of inhibition at 9.75 µg/mL: 17 mm
[8]; [24]
  zone of inhibition at 19.5 µg/mL: 17 mm
[8]; [25]
  zone of inhibition at 39.1 µg/mL: 17 mm
[8]; [26]
  zone of inhibition at 78.1 µg/mL: 17 mm
[8]; [27]
  zone of inhibition at 156.3 µg/mL: 18 mm
[8]; [28]
  zone of inhibition at 312.5 µg/mL: 19 mm
[8]; [29]
  zone of inhibition at 625 µg/mL: 22 mm
[8]; [30]
  zone of inhibition at 1250 µg/mL: 25 mm
[8]; [31]
  zone of inhibition at 2500 µg/mL: 27 mm
[8]; [32]
  zone of inhibition at 5000 µg/mL: 28 mm
[8]; [33]
  zone of inhibition at 10000 µg/mL: 29 mm
[8]; [34]
  MIC: 4.88 µg/mL (≈ 13.6 µM)
[9]
  DNA damaged cells % (mean ± SEM): 23.52 ± 0.65^a %
[9]; of 400 cells analyzed
  Class 0 (no tail), number of cells: 306
  Class 1 (tail length < diameter of nucleus), number of cells: 35
  Class 2 (tail length between 1 and 2 × the diameter of nucleus), number of cells: 28
  Class 3 (tail length > 2 × the diameter of nucleus), number of cells: 31
  No. of cells, Comets: 94
[10]; 100 μg/mL
  mortality at 100 µg/mL: 100%
[10]; MTT
  IC50: 44.4 ± 0.57 µM
[11]
  CDKN2A gene expression level: significantly reduced
[12]
  TP53 gene expression level: suppression
[13]; C. albicans, 200 μL of 10 mg/mL in DMSO in 15 mm holes, overnight 37 °C
  Inhibition zones diameter: 37 ± 1.20 mm
[13]; Candida albicans, read-out: Inhibition zones diameter
  zone of inhibition at 10000 µg/mL: 37 mm
[14]
  DNA damaged cells % (mean ± SEM): 25.56 ± 0.66^a %
[14]; of 400 cells analyzed
  Class 0 (no tail), number of cells: 298
  Class 1 (tail length < diameter of nucleus), number of cells: 29
  Class 2 (tail length between 1 and 2 × the diameter of nucleus), number of cells: 38
  Class 3 (tail length > 2 × the diameter of nucleus), number of cells: 35
  No. of cells, Comets: 102
[15]
  Change (DNA fragmentation versus untreated cells): 23.10
[15]; IC50 concentration, 24 h
  DNA fragmentation % M ± SEM: 35.2 ± 0.68^a %
[15]; doxorubicin = 0.0
  Inhibition: 28.33
[16]
  Change (DNA fragmentation versus untreated cells): 26.20
[16]; IC50 concentration, 24 h
  DNA fragmentation % M ± SEM: 37.1 ± 0.52^a %
[16]; doxorubicin = 0.00
  Inhibition: 24.76
[17]
  BRCA1 gene expression level: decreased significantly
[18]
  DNA damaged cells % (mean ± SEM): 25.78 ± 1.44^a %
[18]; of 400 cells analyzed
  Class 0 (no tail), number of cells: 297
  Class 1 (tail length < diameter of nucleus), number of cells: 38
  Class 2 (tail length between 1 and 2 × the diameter of nucleus), number of cells: 36
  Class 3 (tail length > 2 × the diameter of nucleus), number of cells: 29
  No. of cells, Comets: 103
[19]
  IC50: 48.8 ± 0.26 µM
[20]
  mortality at 48 h, 100 µg/mL: 12.3 ± 1.12%
[21]; 100 μg/mL
  mortality at 100 µg/mL: 100%
[21]; MTT
  IC50: 91.3 ± 0.28 µM
